Laboratory results as given in ChEMBL document CHEMBL5321227, “Lysosome-targeting phenalenones as efficient type I/II photosensitizers for anticancer photodynamic therapy” (Eur J Med Chem, 2023).
Activity calls are given as the source filed them. The calls are words filed in the database; no cut-off is given here.

Key:
[1] = Drug uptake BALB/c mouse xenografted with mouse 4T1 cells assessed as increase in fluorescence signal in tumor at 5 mg/kg,IT(Intratumoral) and measured for 6 to 24 hrs by fluorescence imaging analysis; type: ADME, organism-based, Neoplasm; details: in vivo, other, time 6-24 hrs
[2] = Toxicity in BALB/c mouse xenografted with mouse 4T1 cells assessed as histopathological lesion in kidney at 5 mg/kg,IT(Intratumoral) for 14 days by Hematoxylin and Eosin staining based microscopy; type: organism-based; details: in vivo, other, 336 h, time 14 day
[3] = Drug metabolism in mouse 4T1 cells assessed as increase in carboxylesterase mediated 6-amino-5-iodo-1H-phenalen-1-one release at 5 uM incubated for 2 hrs by confocal laser scanning microscopy; type: ADME, cell-based; details: 4t1, 2 h
[4] = Stability of compound in various pH; type: physicochemical
[5] = Toxicity in BALB/c mouse xenografted with mouse 4T1 cells assessed as histopathological lesion in heart at 5 mg/kg,IT(Intratumoral) for 14 days by Hematoxylin and Eosin staining based microscopy; type: organism-based; details: in vivo, other, 336 h, time 14 day
[6] = Toxicity in BALB/c mouse xenografted with mouse 4T1 cells assessed as tissue destruction with large spaces in tumor at 5 mg/kg,IT(Intratumoral) for 14 days followed by photoirradiation with 500 to 700nm light (0.5 W) for 6 hrs by Hematoxylin and Eosin staining based microscopy; type: organism-based; details: in vivo, other, 342 h, time 14.25 day
[7] = Drug uptake in liver of BALB/c mouse xenografted with mouse 4T1 cells at 5 mg/kg,IT(Intratumoral) and measured after 6 hrs by fluorescence imaging analysis; type: ADME, organism-based; details: in vivo, other
[8] = Stability of compound in H2O2 at 10 uM incubated for 30 mins by fluorescence assay; type: physicochemical; details: 0.5 h
[9] = Photostability of compound in EtOH assessed as compound decomposition at 50 uM incubated for 5 to 20 mins under photoirradiation with 550nm and 10 J/cm^2 LED light by UV-visible spectroscopic analysis; type: physicochemical; details: time 5-20 min
MDA-MB-231 [10] = assay: Anticancer activity against human MDA-MB-231 cells assessed as number of dead cells at 2.5 uM incubated for 12 hrs by calcein-AM and propidium iodide staining based flow cytometry; type: functional, cell-based
4T1 = assay: Anticancer activity against mouse 4T1 cells assessed as reduction in cell viability preincubated for 2 hrs followed by photoirradiation with 500 to 700nm and 12 J/cm^2 LED light for 24 hrs by CCK-8 assay; type: functional, cell-based; details: 4T1, light or radiation study
[11] = Drug uptake in kidney of BALB/c mouse xenografted with mouse 4T1 cells at 5 mg/kg,IT(Intratumoral) and measured after 6 hrs by fluorescence imaging analysis; type: ADME, organism-based; details: in vivo, other
MDA-MB-231 [12] = assay: Anticancer activity against human MDA-MB-231 cells assessed as reduction in cell viability at 0.01 to 10 uM incubated for 24 hrs by CCK-8 assay; type: functional, cell-based; details: dose 0.01-10 µM
[13] = Stability of compound in GSH at 10 uM incubated for 30 mins by fluorescence assay; type: physicochemical; details: 0.5 h

## O=C(CCl)Nc1c(I)cc2c3c(cccc13)C(=O)C=C2
[1]
  Drug uptake: Not Active
[2]
  Activity: Non-Toxic
[3]
  Drug metabolism: Metabolite_Detected
[4]
  Stability: Stable
[5]
  Activity: Non-Toxic
[6]
  Activity: Toxic
[7]
  Drug uptake: Active
[8]
  Stability: Stable
[9]
  Stability: Stable
MDA-MB-231 [10]
  Activity: inactive
4T1
  IC50: 1310 nM
[11]
  Drug uptake: Active
MDA-MB-231 [12]
  Activity: Active
[13]
  Stability: Stable
